Laboratory results taken from the METLIN SMRT retention time set (Domingo-Almenara et al. 2019).

Experiment: gradient 5% acetonitrile 3 min, to 50% in 2 min, to 85% in 15 min, held 3 min, 100 µL/min
Settings: column: Zorbax Extend-C18 2.1 x 50 mm; eluents: water / acetonitrile, 0.1% formic acid
In short: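 Values are retention times taken from adduct peaks that software picked and an analyst inspected. The pure standards were run as mixtures of ~100 molecules on HPLC linked to a quadrupole time-of-flight mass spectrometer, in positive and negative ionization mode. A Zorbax Extend-C18 column (2.1 × 50 mm, 1.8 μm) was used at 100 μL/min with water and acetonitrile, each including 0.1% formic acid.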

Structure (SMILES)	RP-LC retention time [s]
O=C(NCc1ccco1)c1ccc2c(c1)CC(=O)N2Cc1ccc(F)cc1	794
CC(=O)N1CCc2cc(N3CC(C(=O)NCc4ccc5c(c4)OCO5)CC3=O)ccc21 (stereo not drawn)	659
CC(C)CCNC(=O)C1CCN(C(=O)c2cc(-c3ccncc3)n[nH]2)CC1	591
Cc1ccc(CNC(=O)Cc2csc3nc(-c4cccc(Br)c4)cn23)cc1	963
COCC(=O)NC1CCN(c2ccccc2)C1=O (stereo not drawn)	617
CC1=C(c2ccc(C)c(C)c2)S(=O)(=O)N=C1N1CCC(C(=O)NC(C)Cc2ccco2)CC1 (stereo not drawn)	855
CN1CCC(NC(=O)C2CCc3sc(C(=O)N4CCCCC4)cc3C2)CC1 (stereo not drawn)	587
CCc1noc(NC(C)=O)c1-c1ccc(OC)c(S(=O)(=O)Nc2ccc(F)cc2C)c1	796
Cc1ccc(C(C)NC(=O)Cn2cc(-c3noc(-c4cccnc4)n3)nc2C)cc1 (stereo not drawn)	715
Cc1noc(C2CN(C(=O)Nc3ccccc3C)CC23CCOCC3)n1 (stereo not drawn)	700
O=C(NCCC1CCN(C(=O)Nc2cc(F)cc(F)c2)CC1)c1ccoc1	798
N#CC1=C(SCC(=O)Nc2nccs2)NC2=C(C(=O)CCC2)C1c1ccco1 (stereo not drawn)	674
NCCC1CCN(C(=O)Nc2ccccc2)CC1	577
NC(N)=NCCC[C@H](NC(=O)[C@@H]1CCCN1C(=O)[C@H](N)Cc1ccccc1)C(=O)CCl	1100
COc1ccc(-c2noc(C3CCCN3C(=O)Nc3ccc(C)c(C)c3)n2)cc1 (stereo not drawn)	925
CCOC(=O)c1c(C)[nH]c(CN(Cc2ccc3c(c2)OCO3)C(=O)c2ccco2)c1C	991
COc1ccc(Cl)cc1C(=O)N1CCN(c2cc(C)nc(N3CCCC3)n2)CC1	665
COc1ccc(C(=O)N2C[C@@H]3C[C@H]2C[C@@H]3NC(=O)c2cccs2)cn1	666
CCOc1ccc(N2C(=O)N(c3ccc(Cl)c(Cl)c3)C3CS(=O)(=O)CC32)cc1 (stereo not drawn)	915
CN1C(=O)CO[C@@H](C(=O)O)[C@@H]1c1ccccc1	621
CCOc1ccc(C(=O)NC2CCN(c3cc(-c4ccc(OC)cc4)[nH]n3)C2)cc1OCC (stereo not drawn)	742
CN(C)c1ccc(-c2noc(C3CC(=O)N(c4ccc5c(c4)OCCO5)C3)n2)cc1 (stereo not drawn)	920

Structure (SMILES)	RP-LC retention time [s]
CCOc1ccccc1C(=O)Nc1c(-c2ccc(OC)cc2)nc2cc(C)ccn12	732
CCc1nccn1Cc1nc(-c2ccc(Cl)cc2)no1	670
C[C@@H]1CC2C3CCC4=CC(=O)C=CC4(C)[C@@]3(F)[C@@H](O)CC2(C)[C@@]1(O)C(=O)CO (stereo partly drawn)	737
CN(C)C(=O)c1ccc2c(c1)nc(CN(C)C(=O)Nc1ccc(Br)cc1)n2C	628
Cc1nc(CC(=O)Nc2ccc(F)c(F)c2)cs1	754
CCOC(=O)CNC(=O)N1CCCC1c1cccc(C)c1 (stereo not drawn)	784
COc1ccc(F)cc1S(=O)(=O)N(C)CC1(C)CCOCC1	864
O=C(Cc1ccc(F)cc1)Nc1ccccc1NC(=O)c1cccc(Cl)c1	897
Cc1cccc(N2CCN(C(=O)Cc3nnc(-c4sccc4C)o3)CC2)c1	921
Cc1cccc(-n2c(=O)c3c(cc(C)n3C)n(CC(=O)Nc3ccc(C)c(C)c3)c2=O)c1	912
Cc1nc(-c2ccc(C(=O)N(C)C)c(F)c2)no1	693
COc1ccc(NC(=O)N2CCCC2c2nc(-c3cccc(Cl)c3)no2)c(OC)c1 (stereo not drawn)	1070
O=C(Cn1c(=O)c2cccn2c2ccc(F)cc21)NCCCN1CCOCC1	602
CCC(C(=O)NCCCOC)n1c2ccccc2c2cnn(C)c(=O)c21 (stereo not drawn)	749
Cc1ccc(OCc2nc(-c3ccc(N4CCSCC4)nc3)no2)cc1	1180
CCCCNC(=O)C1CCCN(c2ccc(-c3ccc(C)c(C)c3)nn2)C1 (stereo not drawn)	735
CCc1noc(-c2ccc(-n3cnc(C(=O)N4CCOCC4)c3)nc2)n1	691
COC(=O)c1cc2c([nH]c1=O)CC(c1ccc(OC)cc1OC)CC2=O (stereo not drawn)	699
CC(C)c1ccc(S(=O)(=O)N(C)CC2CCOCC2)cc1	1010
O=C(O)c1ccc(Nc2c(-c3cccc(Cl)c3)nc3cnccn23)cc1	714
O=C(c1ccoc1)N1CCCC1c1nc(-c2cccc(C(F)(F)F)c2)no1 (stereo not drawn)	996

The remaining lines, values ahead:

RP-LC retention time [s]	Structure (SMILES)
861	Cc1nc(Nc2ccc(F)cn2)sc1C(=O)NC(C)c1ccccc1 (stereo not drawn)
770	O=C(CCCc1ccccc1)N1C[C@H]2CNC(=O)[C@]23CCCC[C@@H]13
817	Cn1nccc1C(=O)N1CCCC1c1ccc(Cl)cc1 (stereo not drawn)
1060	CCc1nc(-c2csc(S(=O)(=O)N3CCCC(C(=O)Nc4ccccc4OC)C3)c2)no1 (stereo not drawn)
577	CCn1cc(S(=O)(=O)N2CCCn3nc(-c4ccncc4)cc3C2)cn1
754	O=C(c1ccsc1)N1CCC2(CC1)NC(=O)N(Cc1ccccc1)C2=O
1030	O=C(Cn1nc(N2CCSCC2)c2ccccc2c1=O)Nc1cccc(Br)c1
754	Cc1ccc(NC(=O)Cn2nc3nc(N4CCSCC4)ccn3c2=O)cc1C
679	Cc1nc2nc(-c3ccccc3)nn2c(C)c1CC(=O)N1CCCC1
844	O=C(CSc1ncnc2ccccc12)N1CCCc2ccccc21
859	O=c1n(CCOc2ccc(F)cc2)nc2ccc(S(=O)(=O)N3CCCC3)cn12
578	O=S(=O)(Cc1cccc(F)c1)NCC1CCN(Cc2ccsc2)CC1
592	Cc1nc(NC2=NCN(Cc3cccnc3)CN2)nc2c(C)cccc12
663	COc1ccccc1CC(=O)Nc1cnc(-c2cccnc2)nc1
1030	CCCn1c(=O)sc2cc(S(=O)(=O)N3CCC(C(=O)Nc4ccc(C)c(C)c4)CC3)ccc21
880	COc1ccc(S(=O)(=O)Nc2ccccc2C(=O)Nc2ccc3c(c2)OCCO3)cc1
879	O=C(Cn1ccc2ccc(N3CCOCC3)nc21)N1CCN(c2ccccc2)CC1
977	O=C(NCc1noc(CCc2ccccc2)n1)c1ccc(-c2noc(C3CC3)n2)cc1
892	COc1ccc(NC(=O)N2CCCC2c2nc(-c3ccccc3OC)no2)cc1Cl (stereo not drawn)
855	O=c1n(Cc2ccc(F)cc2)nc2ccc(S(=O)(=O)N3CCCC3)cn12
695	O=C(CN1CCN(c2ccc(Cl)cc2)C1=O)N1CCN(C(=O)c2ccco2)CC1
823	Cn1ncc2c(N3CCSCC3)nc(C(=O)NCc3ccc(F)cc3)nc21
835	CC1=C(c2ccccc2)S(=O)(=O)N=C1N1CCCN(C(=O)c2ccc(F)cc2F)CC1

RP-LC retention time [s]	Structure (SMILES)
956	COc1ccc(-c2noc(CN3C(=O)C(C)Oc4ccccc43)n2)c(OC)c1 (stereo not drawn)
921	COc1cccc(NC(=O)Cn2c(C)cc(-c3nnc(-c4ccccc4)o3)c2C)c1
823	CC1=C(c2ccc(Cl)cc2)S(=O)(=O)N=C1N1CCCN(C(=O)c2ccco2)CC1
766	COCCN1C(=O)Cc2ccccc2C1C(=O)NCc1cccc(Cl)c1 (stereo not drawn)
1030	Cn1nccc1-c1cccc(-c2noc(-c3cccs3)n2)c1
660	Cn1c(N2CCCN(C(=O)c3ccc(F)c(F)c3)CC2)cc(=O)n(C)c1=O
717	COc1ccccc1C(=O)NC1CCN(c2cc(-c3cccs3)[nH]n2)C1 (stereo not drawn)
1030	Cc1ccc(-c2nnc(-c3nc(NCCc4ccco4)c4ccccc4n3)o2)cc1
940	Cn1cc(S(=O)(=O)N2CCCCC2)cc1C(=O)N1CCN(c2ccc(F)cc2)CC1
788	COC(=O)c1cccc(N2C=C(C(=O)N3CCCC3)S(=O)(=O)c3ccc(F)cc32)c1
1040	COc1ccc(OC)c(NC(=O)N2CCC3(CC2)Nc2ccccc2-n2cccc23)c1
1010	Cn1nc(-c2nnc(-c3ccccc3F)o2)c2c1CCN(S(=O)(=O)c1ccc(Cl)s1)C2
890	CC(NC(=O)c1ccccc1)c1nc(-c2ccc(NS(=O)(=O)c3cccs3)cc2)no1 (stereo not drawn)
659	CCOc1ccc(C(=O)N2CCN(c3cnn4c(C5CC5)nnc4c3)CC2)cc1
556	CCOC(=O)c1ccccc1NC(=O)CN1CCC(Cn2cnc3ccccc32)CC1
702	Cn1cnc(S(=O)(=O)N2CCCN(S(=O)(=O)c3cccc4nsnc34)CCNC(=O)CC2c2ccccc2)c1 (stereo not drawn)
865	CC1CC(=O)N(CC(=O)Nc2ccc3c(c2)OCO3)c2ccccc2S1 (stereo not drawn)
817	Cc1ccc(S(=O)(=O)NC(C)c2nc(-c3ccc(NS(C)(=O)=O)cc3)no2)cc1 (stereo not drawn)
682	Cc1nc2cc3c(cc2n1CC(=O)NC1CCCc2ccccc21)OCCO3 (stereo not drawn)
888	O=C1NC2(CCN(C(=O)c3cccc(Cl)c3)CC2)N=C1c1cccc(F)c1
1330	CCN(C(=O)c1ccccc1Br)c1nc(-c2ccccc2)cs1
706	O=S(=O)(Cc1ccccc1)N1CCCC(c2nn[nH]n2)C1 (stereo not drawn)
